Patent US8354454B2, “Prodrugs of oxazolidinone CETP inhibitors” (Merck Sharp & Dohme Corp., priority 2008, dated 2013)

Experiment: physchem
Details: buffer, pH 7.68
Description: 50 μL aliquots were removed periodically. […] Each aliquot was diluted with MeCN-d3 (150 μL), and a ^1H NMR spectrum was acquired (128 scans at 25° C., with acquisition starting 3 minutes after the aliquot was taken from the reaction).
The methods for determining the half-lives were approximately the same as described above, with variations in procedure depending on such variables as solubility and reaction rates.

COc1cc(F)c(C(C)C)cc1-c1ccc(C(F)(F)F)cc1CN[C@@H](C)[C@H](OC(=O)OC(COP(=O)(O)O)COP(=O)(O)O)c1cc(C(F)(F)F)cc(C(F)(F)F)c1 [Example 47, (8R,9S)-8-[3,5-bis(trifluoromethyl)phenyl]-N-{[4′-fluoro-5′-isopropyl-2′-methoxy-4-(trifluoromethyl)biphenyl-2-yl]methyl}-1,1-dihydroxy-6-oxo-4-[(phosphonooxy)methyl]-2,5,7-trioxa-1λ^5-phosphadecan-9-aminium1-oxide chloride]
half-life: ~2.5 h
